According to article PMC10917667, “Targeted protein degradation via intramolecular bivalent glues” (Nature, 2024):

Molecular target: T1, BRD4 (BRD4^Tandem) (Homo sapiens, UniProt O60885)
T1 construct: BRD4^Tandem (residues 43–459), BD1 and BD2 with native linker; with DCAF16–DDB1(ΔBPB)–DDA1
Assay: cryo-EM ternary structure ([…] Å); alphaLISA displacement ([…] with DCAF16, […] alone); ITC; TR-FRET
Format: binding

- IC50: 12.8 nM
SMILES: COC(=O)C[C@@H]1N=C(c2ccc(-c3ccc(C(=O)NCc4ccc(S(=O)(=O)Nc5ccc(C)c6c(C#N)c[nH]c56)cc4)cc3)cc2)c2c(sc(C)c2C)-n2c(C)nnc21 [IBG1]
